For one assay, the system named is CD4 T cells. Kind of assay: IFNγ ELISPOT of splenocytes from Listeria-infected mice restimulated with synthetic peptides. The settings on record: seven days after i.p. Listeria infection; splenocytes restimulated with 100 nM peptide. Type of assay: in vivo, mouse. An excerpt: FIG. 10—BOTA and MHCII peptidomics accurately predict immunodominance in vivo. […] At day 7, splenocytes were harvested and restimulated with the indicated peptides for quantification of the T cell response by IFNγ ELISPOT. Data represent the mean number of spots per 1×10^5 CD4 T cells±sd for n=6 mice.
Given that MHCII peptidomics and BOTA successfully identified Listeria peptides and features associated with efficient antigen presentation, Applicants sought to measure T cell responses to these epitopes in vivo. To quantify the CD4 T cell response directed to the top eight candidate Listeria epitopes, mice were sacrificed seven days after intraperitoneal (i.p.) infection with Listeria. T cells were restimulated in vitro with synthetic peptides, and IFN-γ responses were enumerated by ELISPOT. […] The remaining four epitopes elicited weaker responses near the limit of detection for ELISPOT (FIG. 10B).
Listeria infection and ELISPOT. L. monocytogenes strain EGDe (ATCC BA-679) was grown to log phase in BHI, washed in PBS, and used to inoculate mice by i.p. injection with a dose of 1×10^4 CFU/200 μl/mouse. Seven days after infection, spleens were harvested, red blood cells were lysed, and single cell suspensions were replated at 2.5×10^5/200 μl/well on 96-well ELISPOT plates (Millipore MAIPS4510) precoated with anti-IFNγ (BD Pharmingen 551881) at a concentration of 5 μg/ml in PBS. Peptides were added at a concentration of 100 nM to restimulate splenocytes overnight. After stimulation, plates were washed, blocked, and incubated with biotinylated anti-IFNγ (BD Pharmingen 551881) at a concentration of 2 μg/ml and streptavidin-AKP (BD Pharmingen 554065) at a dilution of 1:1000. After 60 minutes, plates were washed and developed with 3-amino-9-ethylcarbazole (AEC, Sigma-Aldrich, A6926). IFNγ-secreting cells were scanned and enumerated using an Immunospot Analyzer ELISpot reader (CTL). All samples were run in triplicate. The following peptides were synthesized by New England Peptide: lmo2185_293-312 […] (SEQ ID NO: 14986), lmo0202_189-204 […] (SEQ ID NO: 14981), lmo0135_150-169 […] (SEQ ID NO: 14997), lmo2558_533-553 […] (SEQ ID NO: 14984), lmo2360_289-306 […] (SEQ ID NO: 15009), lmo0186_285-303 […] (SEQ ID NO: 15005), lmo0582a_26-46 […] (SEQ ID NO: 15012), lmo0582b_12-25 […] (SEQ ID NO: 15013). To calculate the frequency of CD4^+ cells in each splenocyte sample from infected mice, an aliquot of cells from each mouse was stained for flow cytometric analysis. 1×10^6 cells were incubated with 2.4G2 Mouse Fc block in PBS/FBS (BD Pharmingen, 553142) for 20 min at 4° C. […] Fluorescently labeled cells were acquired on the FACSVerse flow cytometer (BD Biosciences) and analyzed using FlowJo Analysis Software (Tree Star).

For assay [1], the system named is ovarian carcinoma patients. The settings on record: poly-ICLC in combination with a NY-ESO-1 peptide vaccine (in addition to Montanide), phase 1; cited from earlier work.

A value given as a limit tells only on which side of the number the result lay.

“ADFRYVFDTAKATAASSYPG (Listeria sp) [SEQ ID NO: 14986, Listeria peptide from lmo2185]”: the “T cell response (IFN-γ ELISPOT)” value in the assay with CD4 T cells was “Robust responses”.

Turning to “APGQETQHYYGLPVADSAIDR (Listeria sp) [SEQ ID NO: 14984, Listeria peptide from lmo2558 (ami)]”, the “T cell response (IFN-γ ELISPOT)” value in the assay on CD4 T cells was “Robust responses”.

For the substance “Polyinosinic-Polycytidylic Acid-poly-L-lysine Carboxymethylcellulose [poly-ICLC]”, the “patients showing induction of CD4+ and CD8+ T cell, as well as antibody responses to the peptide” value in assay [1] is above 90%.

In the case of “VDDTTVKFTLPTVAPAFENT (Listeria sp) [SEQ ID NO: 14997, Listeria peptide from lmo0135]”, in the assay with CD4 T cells, the “T cell response (IFN-γ ELISPOT)” value is on record as “Robust responses”.

For “WNEKYAQAYPNVSAKI (Listeria sp) [SEQ ID NO: 14981, Listeria peptide from lmo0202 (hly) (LLO)]”, in the assay on CD4 T cells, the “T cell response (IFN-γ ELISPOT)” value is recorded as “Robust responses”.

Source of the values: patent US12374423B2, “Systems and methods for MHC class II epitope prediction” (priority 2017, dated 2025).
